This is an account of results in ChEMBL document CHEMBL4251748, “Discovery of Cytochrome P450 4F11 Activated Inhibitors of Stearoyl Coenzyme A Desaturase” (J Med Chem, 2018).

Structures are written as SMILES.

One data set deals with NCI-H2122. The data set can be described thus: Cytotoxicity against human NCI-H2122 cells incubated for 4 days. The data set is classed as functional, cell-based. The conditions noted are these: NCI-H2122, 96 h.
Data set [1] addresses T1, Acyl-CoA desaturase 1 (Mus musculus) (UniProt P13516).
T1 sequence (whole entry): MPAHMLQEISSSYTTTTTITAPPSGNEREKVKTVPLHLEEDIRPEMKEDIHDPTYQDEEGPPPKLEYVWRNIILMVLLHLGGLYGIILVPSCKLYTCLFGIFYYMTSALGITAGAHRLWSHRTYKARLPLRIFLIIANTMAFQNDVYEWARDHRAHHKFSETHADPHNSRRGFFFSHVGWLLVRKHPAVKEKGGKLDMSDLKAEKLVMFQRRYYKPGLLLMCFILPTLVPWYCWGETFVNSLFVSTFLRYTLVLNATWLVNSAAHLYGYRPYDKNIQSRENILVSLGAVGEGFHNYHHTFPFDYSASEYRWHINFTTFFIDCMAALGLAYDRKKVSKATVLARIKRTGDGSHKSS
The data set is described as follows: Inhibition of SCD1 in CD1 mouse liver at 100 nM using stearoyl [9,10-3H] CoA as substrate and NADPH incubated for 2 hrs by scintillation counting method.

Data set [2] deals with NCI-H1155. The data set is described as follows: Cytotoxicity against human NCI-H1155 cells expressing CYP4F11 incubated for 4 days in presence of sodium oleate. The conditions noted are these: NCI-H1155, 96 h. It is filed as functional, cell-based.
A short description of data set [3]: Drug level in human NCI-H1155 cells after 4 hrs by LC-MS/MS analysis. The data set is classed as ADME, cell-based. The conditions noted are these: nci-h1155, 4 h.
Data set [4] relates to NCI-H1155. The data set is described as follows: Cytotoxicity against human NCI-H1155 cells incubated for 4 days in presence of sodium oleate. The conditions noted are these: NCI-H1155, 96 h. It is filed as functional, cell-based.
In data set [5] the test system is NCI-H1155. The data set is described as follows: Cytotoxicity against human NCI-H1155 cells expressing CYP4F11 incubated for 4 days. The data set is classed as functional, cell-based. The conditions noted are these: NCI-H1155, 96 h.
Data set [6] in a line: Half life in human NCI-H1155 cells at 500 nM by LC-MS/MS analysis. The data set is classed as ADME, cell-based.
Another data set deals with T2, CYP4F11 (Homo sapiens, UniProt Q9HBI6).
T2 sequence (Q9HBI6 whole entry): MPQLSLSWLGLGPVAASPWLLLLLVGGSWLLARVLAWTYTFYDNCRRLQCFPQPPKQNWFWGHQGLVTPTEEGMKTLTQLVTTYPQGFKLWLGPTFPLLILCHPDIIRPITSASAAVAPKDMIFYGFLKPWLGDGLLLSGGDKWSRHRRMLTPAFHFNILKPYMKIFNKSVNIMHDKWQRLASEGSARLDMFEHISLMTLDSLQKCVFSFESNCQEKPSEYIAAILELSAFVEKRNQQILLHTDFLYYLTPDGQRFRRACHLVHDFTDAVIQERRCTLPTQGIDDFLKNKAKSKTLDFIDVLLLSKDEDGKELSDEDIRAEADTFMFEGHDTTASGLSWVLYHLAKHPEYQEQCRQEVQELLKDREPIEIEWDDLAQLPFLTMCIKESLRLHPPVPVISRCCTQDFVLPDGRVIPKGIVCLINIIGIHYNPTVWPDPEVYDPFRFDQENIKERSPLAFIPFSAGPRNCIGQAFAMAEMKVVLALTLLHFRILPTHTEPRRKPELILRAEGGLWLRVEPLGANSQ
The data set is described as follows: Drug metabolism in human NCI-H1155 cells assessed as CYP4F11-meidated O-demethylation by measuring half life at 500 nM by LC-MS/MS analysis. The data set is classed as ADME, cell-based.

Data set [7] has as its system NCI-H1155. The data set is described as follows: Cytotoxicity against human NCI-H1155 cells expressing pLVX empty vector incubated for 4 days. The data set is classed as functional, cell-based. Particulars: NCI-H1155, 96 h.
Data set [8] can be described thus: Half life in mouse liver S9 fraction by LC-MS/MS analysis. It is filed as ADME, subcellular.
The target of data set [9] is T1, Acyl-CoA desaturase 1 (Mus musculus). The data set is described as follows: Inhibition of SCD1 in CD1 mouse liver at 3 uM using stearoyl [9,10-3H] CoA as substrate and NADPH incubated for 2 hrs by scintillation counting method.

Usually EC50 stands for the concentration at which the effect is half-maximal. As usually defined, the inhibition is the percentage by which the read-out fell short of the control. Low values mean a response near the control, high ones a response far below the control. What is called half-life is the time needed for the level to fall by half in the phase considered.

The compound `Cc1ccccc1C(=O)c1ccc(C(=O)NC(=O)NCCc2ccc(O)cc2)cc1` gave an EC50 in the data set on NCI-H2122 of 1.5 µM. Moreover, in [1], the inhibition was 57%.

Turning to `C#CCOc1ccc(C(=O)c2ccc(NC(=O)C(=O)NCCc3ccc(OC)cc3)cc2)cc1`, the concentration giving a half-maximal response (EC50) in the data set on NCI-H1155 [2] is more than 50 µM; in the data set with NCI-H1155 [4], 16 µM; in the data set with NCI-H1155 [5] it was 0.12 µM; with NCI-H2122, 0.028 µM; with NCI-H1155 [7], 8.5 µM. Further, the Drug uptake in data set [3] was 870 nM. Besides, the figures for the half-life at 0.5 µM (in data set [6]; on CYP4F11) were more than 48 h and 28 h, respectively.

Take `O=C(NCCc1ccc(O)cc1)C(=O)Nc1ccc(Cl)cc1`: the EC50 stood at 21 µM in the data set on NCI-H1155 [2]; 37 µM in the data set with NCI-H1155 [4]; 0.37 µM with NCI-H1155 [5]; 0.26 µM in the data set with NCI-H2122; 0.39 µM in the data set on NCI-H1155 [7]. The compound also gave a half-life in [8] of 1.18 h.

For `CC(Cc1ccc(O)cc1)NC(=O)C(=O)Nc1ccc(Cl)cc1` (centres undefined), the EC50 with NCI-H1155 [2] came out at 13 µM; in the data set on NCI-H1155 [4] it was 10 µM; in the data set on NCI-H1155 [5], 11.2 µM; with NCI-H2122 it was 5.1 µM; in the data set on NCI-H1155 [7] it was 11.7 µM. Also, the inhibition in data set [1] is 24%.

With `O=C(NCCc1ccc(O)cc1)c1ccc2ccccc2n1`, the EC50 in the data set on NCI-H1155 [2] was 35 µM; in the data set on NCI-H1155 [4], 46 µM; with NCI-H1155 [5], 17 µM; in the data set on NCI-H2122, more than 50 µM; in the data set on NCI-H1155 [7], 18 µM. The compound further yielded an inhibition in data set [1] of 31%.

Take `CC(CNC(=O)C(=O)Nc1ccc(Cl)cc1)c1ccc(O)cc1` (centres undefined): the EC50 with NCI-H1155 [2] is more than 50 µM; in the data set with NCI-H1155 [4] it was more than 50 µM; in the data set on NCI-H1155 [5], more than 50 µM; in the data set with NCI-H2122, 4 µM; in the data set on NCI-H1155 [7], more than 50 µM. Besides, the inhibition in [1] came to 28%.

In the case of `COc1ccc(CCNC(=O)C(=O)NC2CC2)cc1`, the EC50 with NCI-H1155 [2], in the data set with NCI-H1155 [4], in the data set with NCI-H1155 [5], in the data set on NCI-H2122 and in the data set on NCI-H1155 [7] was more than 50 µM in each case. In data set [3], this compound gave a Drug uptake of 80 nM. Besides, the half-life at 0.5 µM was more than 48 h in data set [6] and 4.7 h on CYP4F11.

For `O=C(NCCc1ccc(O)cc1)C(=O)NC1CC1`, the EC50 in the data set with NCI-H1155 [2], with NCI-H1155 [4], with NCI-H1155 [5], with NCI-H2122 and with NCI-H1155 [7] was more than 50 µM in each case. Moreover, the inhibition in data set [1] turned out to be 0%.

Turning to `O=C(NCCc1ccc(O)cc1)NC(=O)c1ccc(COc2ccccc2)cc1`, the EC50 was 6.4 µM in the data set with NCI-H1155 [2]; 12 µM with NCI-H1155 [4]; 0.051 µM with NCI-H1155 [5]; 0.011 µM in the data set with NCI-H2122; 0.007 µM in the data set with NCI-H1155 [7]. In addition, the inhibition in data set [1] turned out to be 96%. The compound further came in with a half-life in data set [8] of more than 4 h.

`C#CCOc1ccc(C(=O)c2ccc(NC(=O)C(=O)NCCc3ccc(O)cc3)cc2)cc1`: the EC50 with NCI-H1155 [2] was more than 50 µM; with NCI-H1155 [4], more than 50 µM; in the data set with NCI-H1155 [5], 0.21 µM; in the data set with NCI-H2122, 0.058 µM; in the data set on NCI-H1155 [7], 0.008 µM. The same compound yielded an inhibition in data set [9] of more than 98%. In addition, the half-life in [8] worked out at 0.217 h.

The compound `COc1ccc(CNC(=O)C(=O)Nc2ccc(Cl)cc2)cc1` returned a Drug uptake in data set [3] of 340 nM. For the same compound, the half-life at 0.5 µM in data set [6] was more than 48 h.
